Experimental data as given in patent US20230085307A1, “PYRIDAZINONE COMPOUND AND HERBICIDE” (NISSAN CHEMICAL CORPORATION, priority 2019, published 2023).

How the values were obtained:
[1] = tested on: chickweed; assay: Test Example 5: herbicidal effect by foliage application, plastic box (Table 20, symbol P); assay type: in vivo, common chickweed (Stellaria media); settings: foliage application; for P: chickweed, herbicidal effect (criteria 0-5): AAH 320 g/ha
Summary of the method: (§1)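 Foliar spray test: emulsion formulation diluted in water to a set application rate, sprayed onto 14-day-old plants raised in diluvial soil at 25° C to 30° C under glass. Both herbicidal effect and crop effect rated visually three weeks later.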

[2] = tested on: redroot pigweed; assay: Test Example 4: herbicidal effect by soil treatment (Table 19, symbol N); assay type: in vivo, redroot pigweed (Amaranthus retroflexus)
Summary of the method: (§2)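 Step 1: sow seeds in sterilized diluvial soil, cover ~1.5 cm. Step 2: spray diluted emulsion onto soil surface at predetermined rate. Step 3: greenhouse, 25–30° C, three weeks. Step 4: grade effect on each plant by earlier criteria.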

[3] = tested on: rice flat sedge; assay: Test Example 3: herbicidal effect by foliage application, Wagner pot (Table 18, symbol E); assay type: in vivo, rice flat sedge (Cyperus iria); settings: for herbicidal effect on E: rice flat sedge: amount of applied herbicide 320 g/ha; for herbicidal effect on E (rice flat sedge), rating 0-5: 320 g/ha
Summary of the method: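 Plants were sown in alluvial soil held under 0.1–0.5 cm standing water and grown 14 days in a greenhouse at 25–30 °C. An emulsifiable formulation, water-diluted to the set dose, was then sprayed onto the foliage, and effects were scored three weeks later using previously defined criteria.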

[4] = tested on: velvetleaf; assay: Test Example 5: herbicidal effect by foliage application, plastic box (Table 20, symbol M); assay type: in vivo, velvetleaf (Abutilon theophrasti); settings: foliage application; for M: velvetleaf, herbicidal effect (criteria 0-5): AAH 320 g/ha
Summary of the method: as §1

[5] = tested on: oval-leafed pondweed; assay: Test Example 1: herbicidal activity, application before weed generation under submerged conditions (Table 16, symbol C); assay type: in vivo, oval-leafed pondweed (Monochoria vaginalis); settings: 320 g/ha applied herbicide
Summary of the method: (§3)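 Emulsion formulation, water-diluted to set dose, was put onto the flooded surface (4 cm depth, alluvial soil) the same day weeds were sown and 2.5-leaf rice transplanted. After 3 weeks at 25-30 °C under glass, each species was rated 0 (≤5% kill) to 5 (≥90% kill).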

[6] = tested on: barnyard grass; assay: Test Example 4: herbicidal effect by soil treatment (Table 19, symbol H); assay type: in vivo, barnyard grass (Echinochloa crus-galli)
Summary of the method: as §2

[7] = tested on: blackgrass; assay: Test Example 5: herbicidal effect by foliage application, plastic box (Table 20, symbol J); assay type: in vivo, blackgrass (Alopecurus myosuroides); settings: foliage application; for J: blackgrass, herbicidal effect (criteria 0-5): AAH 320 g/ha
Summary of the method: as §1

[8] = tested on: wild oat; assay: Test Example 5: herbicidal effect by foliage application, plastic box (Table 20, symbol I); assay type: in vivo, wild oat (Avena fatua); settings: foliage application; for I: wild oat, herbicidal effect (criteria 0-5): AAH 320 g/ha
Summary of the method: as §1

[9] = tested on: barnyard grass; assay: Test Example 5: herbicidal effect by foliage application, plastic box (Table 20, symbol H); assay type: in vivo, barnyard grass (Echinochloa crus-galli); settings: foliage application; for H: barnyard grass, herbicidal effect (criteria 0-5): AAH 320 g/ha
Summary of the method: as §1

[10] = tested on: green foxtail; assay: Test Example 4: herbicidal effect by soil treatment (Table 19, symbol G); assay type: in vivo, green foxtail (Setaria viridis)
Summary of the method: as §2

[11] = tested on: redroot pigweed; assay: Test Example 5: herbicidal effect by foliage application, plastic box (Table 20, symbol N); assay type: in vivo, redroot pigweed (Amaranthus retroflexus); settings: foliage application; for N: redroot pigweed, herbicidal effect (criteria 0-5): AAH 320 g/ha
Summary of the method: as §1

[12] = tested on: chickweed; assay: Test Example 4: herbicidal effect by soil treatment (Table 19, symbol P); assay type: in vivo, common chickweed (Stellaria media)
Summary of the method: as §2

[13] = tested on: wild oat; assay: Test Example 4: herbicidal effect by soil treatment (Table 19, symbol I); assay type: in vivo, wild oat (Avena fatua)
Summary of the method: as §2

[14] = tested on: oval-leafed pondweed; assay: Test Example 2: herbicidal activity, application during weed generation under submerged conditions (Table 17, symbol C); assay type: in vivo, oval-leafed pondweed (Monochoria vaginalis); settings: AAH 320 g/ha; application during weed generation, submerged conditions
Summary of the method: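 Alluvial soil in Wagner pots was flooded to 4 cm depth and sown with the three weeds together; pots were kept in a greenhouse at 25° C. to 30° C. At the one to two leaf stage, an emulsion formulation diluted in water to a set rate went onto the water surface; scored three weeks later.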

[15] = tested on: Japanese bulrush; assay: Test Example 1: herbicidal activity, application before weed generation under submerged conditions (Table 16, symbol B); assay type: in vivo, Japanese bulrush (Schoenoplectus juncoides); settings: 320 g/ha applied herbicide
Summary of the method: as §3

[16] = tested on: green foxtail; assay: Test Example 5: herbicidal effect by foliage application, plastic box (Table 20, symbol G); assay type: in vivo, green foxtail (Setaria viridis); settings: foliage application; for G: green foxtail, herbicidal effect (criteria 0-5): AAH 320 g/ha
Summary of the method: as §1

[17] = evaluated three weeks after application
[18] = amount of applied herbicide 320 g/ha
[19] = 320 g/ha, evaluated three weeks after application
[20] = 320 g/ha, three weeks after application

| SMILES | P: chickweed, herbicidal effect (criteria 0-5) [1, 17] | herbicidal effect on N: redroot pigweed [2, 18] | herbicidal effect on E: rice flat sedge [3] | M: velvetleaf, herbicidal effect (criteria 0-5) [4, 17] | Herbicidal effect on C: oval-leafed pondweed (grade 0-5) [5] | herbicidal effect on H: barnyard grass [6, 18] | J: blackgrass, herbicidal effect (criteria 0-5) [7, 17] | I: wild oat, herbicidal effect (criteria 0-5) [8, 17] | H: barnyard grass, herbicidal effect (criteria 0-5) [9, 17] | herbicidal effect on G: green foxtail [10, 18] | N: redroot pigweed, herbicidal effect (criteria 0-5) [11, 17] | herbicidal effect on P: chickweed [12, 18] | herbicidal effect on I: wild oat [13, 18] | herbicidal effect rating, C: oval-leafed pondweed [14] | Herbicidal effect on B: Japanese bulrush (grade 0-5) [15] | G: green foxtail, herbicidal effect (criteria 0-5) [16, 17] | herbicidal effect on E (rice flat sedge), rating 0-5 [3] | further results |
| --- | --- | --- | --- | --- | --- | --- | --- | --- | --- | --- | --- | --- | --- | --- | --- | --- | --- | --- |
| COCCSCc1ccc(-c2sc3ccc(F)cc3c2-c2c(O)c(C)nn(C)c2=O)cc1 [2-327] | 5 (Herbicidal rate of 90% or more (almost completely withered)) | 4 (Herbicidal rate of 70% or more and less than 90%) | 4 (Herbicidal rate of 70% or more and less than 90%) | 5 (Herbicidal rate of 90% or more (almost completely withered)) | 3 (Herbicidal rate of 40% or more and less than 70%) | 3 (Herbicidal rate of 40% or more and less than 70%) | 4 (Herbicidal rate of 70% or more and less than 90%) | 3 (Herbicidal rate of 40% or more and less than 70%) | 5 (Herbicidal rate of 90% or more (almost completely withered)) | 4 (Herbicidal rate of 70% or more and less than 90%) | 5 (Herbicidal rate of 90% or more (almost completely withered)) | 1 (Herbicidal rate of 5% or more and less than 20%) | 0 (Herbicidal rate of 5% or less (almost no effect)) | 0 (Herbicidal rate of 5% or less (almost no effect)) | 3 (Herbicidal rate of 40% or more and less than 70%) | 5 (Herbicidal rate of 90% or more (almost completely withered)) |  |  |
| CCCSc1ccc(-c2sc3ccc(F)cc3c2-c2c(OC(=O)CCC)c(C)nn(C)c2=O)cc1 [2-249] |  | 5 (Herbicidal rate of 90% or more (almost completely withered)) | 5 (Herbicidal rate of 90% or more (almost completely withered)) |  | 0 (Herbicidal rate of 5% or less (almost no effect)) | 4 (Herbicidal rate of 70% or more and less than 90%) |  |  |  | 4 (Herbicidal rate of 70% or more and less than 90%) |  | 0 (Herbicidal rate of 5% or less (almost no effect)) | 0 (Herbicidal rate of 5% or less (almost no effect)) | 2 (Herbicidal rate of 20% or more and less than 40%) | 2 (Herbicidal rate of 20% or more and less than 40%) |  |  | herbicidal effect on P: chickweed (criteria 0-5) [1, 19]: 5 (Herbicidal rate of 90% or more (almost completely withered)); herbicidal effect on M: velvetleaf (criteria 0-5) [4, 19]: 5 (Herbicidal rate of 90% or more (almost completely withered)); herbicidal effect on J: blackgrass (criteria 0-5) [7, 19]: 4 (Herbicidal rate of 70% or more and less than 90%); herbicidal effect on I: wild oat (criteria 0-5) [8, 19]: 4 (Herbicidal rate of 70% or more and less than 90%); herbicidal effect on H: barnyard grass (criteria 0-5) [9, 19]: 5 (Herbicidal rate of 90% or more (almost completely withered)); herbicidal effect on N: redroot pigweed (criteria 0-5) [11, 19]: 5 (Herbicidal rate of 90% or more (almost completely withered)); herbicidal effect on G: green foxtail (criteria 0-5) [16, 19]: 5 (Herbicidal rate of 90% or more (almost completely withered)) |
| Cc1nn(C)c(=O)c(-c2c(-c3ccc(OC(C)C)cc3)sc3ccccc23)c1O [1-020] |  |  |  |  | 4 (Herbicidal rate of 70% or more and less than 90%) |  |  |  |  |  |  |  |  | 3 (Herbicidal rate of 40% or more and less than 70%) | 5 (Herbicidal rate of 90% or more (almost completely withered)) |  | 5 (Herbicidal rate of 90% or more (almost completely withered)) | herbicidal effect grade, P: chickweed [1, 20]: 5 (Herbicidal rate of 90% or more (almost completely withered)); herbicidal effect rating, N: redroot pigweed [2, 18]: 0 (Herbicidal rate of 5% or less (almost no effect)); herbicidal effect grade, M: velvetleaf [4, 20]: 3 (Herbicidal rate of 40% or more and less than 70%); herbicidal effect rating, H: barnyard grass [6, 18]: 5 (Herbicidal rate of 90% or more (almost completely withered)); herbicidal effect grade, J: blackgrass [7, 20]: 4 (Herbicidal rate of 70% or more and less than 90%); herbicidal effect grade, I: wild oat [8, 20]: 0 (Herbicidal rate of 5% or less (almost no effect)); herbicidal effect grade, H: barnyard grass [9, 20]: 4 (Herbicidal rate of 70% or more and less than 90%); herbicidal effect rating, G: green foxtail [10, 18]: 5 (Herbicidal rate of 90% or more (almost completely withered)); herbicidal effect grade, N: redroot pigweed [11, 20]: 3 (Herbicidal rate of 40% or more and less than 70%); herbicidal effect rating, P: chickweed [12, 18]: 3 (Herbicidal rate of 40% or more and less than 70%); herbicidal effect rating, I: wild oat [13, 18]: 0 (Herbicidal rate of 5% or less (almost no effect)); herbicidal effect grade, G: green foxtail [16, 20]: 3 (Herbicidal rate of 40% or more and less than 70%) |
| Cc1nn(C)c(=O)c(-c2c(-c3ccc(OC(F)F)cc3)sc3ccc(F)cc23)c1OC(=O)c1cccs1 [2-288] | 5 (Herbicidal rate of 90% or more (almost completely withered)) | 4 (Herbicidal rate of 70% or more and less than 90%) | 5 (Herbicidal rate of 90% or more (almost completely withered)) | 5 (Herbicidal rate of 90% or more (almost completely withered)) | 4 (Herbicidal rate of 70% or more and less than 90%) | 2 (Herbicidal rate of 20% or more and less than 40%) | 4 (Herbicidal rate of 70% or more and less than 90%) | 1 (Herbicidal rate of 5% or more and less than 20%) | 5 (Herbicidal rate of 90% or more (almost completely withered)) | 4 (Herbicidal rate of 70% or more and less than 90%) | 5 (Herbicidal rate of 90% or more (almost completely withered)) | 4 (Herbicidal rate of 70% or more and less than 90%) | 0 (Herbicidal rate of 5% or less (almost no effect)) | 3 (Herbicidal rate of 40% or more and less than 70%) | 5 (Herbicidal rate of 90% or more (almost completely withered)) | 5 (Herbicidal rate of 90% or more (almost completely withered)) |  |  |
| C#CCOc1ccc(-c2sc3ccc(F)cc3c2-c2c(OCOCCOC)c(C)nn(C)c2=O)cc1 [2-055] |  |  |  |  | 1 (Herbicidal rate of 5% or more and less than 20%) |  |  |  |  |  |  |  |  | 3 (Herbicidal rate of 40% or more and less than 70%) | 3 (Herbicidal rate of 40% or more and less than 70%) |  | 4 (Herbicidal rate of 70% or more and less than 90%) | herbicidal effect on P: chickweed [1, 19]: 5 (Herbicidal rate of 90% or more (almost completely withered)); herbicidal effect rating, N: redroot pigweed ([2]; 320 g/ha): 4 (Herbicidal rate of 70% or more and less than 90%); herbicidal effect on M: velvetleaf [4, 19]: 5 (Herbicidal rate of 90% or more (almost completely withered)); herbicidal effect rating, H: barnyard grass ([6]; 320 g/ha): 3 (Herbicidal rate of 40% or more and less than 70%); herbicidal effect on J: blackgrass [7, 19]: 3 (Herbicidal rate of 40% or more and less than 70%); herbicidal effect on I: wild oat [8, 19]: 1 (Herbicidal rate of 5% or more and less than 20%); herbicidal effect on H: barnyard grass [9, 19]: 4 (Herbicidal rate of 70% or more and less than 90%); herbicidal effect rating, G: green foxtail ([10]; 320 g/ha): 4 (Herbicidal rate of 70% or more and less than 90%); herbicidal effect on N: redroot pigweed [11, 19]: 5 (Herbicidal rate of 90% or more (almost completely withered)); herbicidal effect rating, P: chickweed ([12]; 320 g/ha): 3 (Herbicidal rate of 40% or more and less than 70%); herbicidal effect rating, I: wild oat ([13]; 320 g/ha): 0 (Herbicidal rate of 5% or less (almost no effect)); herbicidal effect on G: green foxtail [16, 19]: 5 (Herbicidal rate of 90% or more (almost completely withered)) |
